# System: MV-4-11 cells
# Experiment: Gene expression microarray analysis (Affymetrix PrimeView) and GSEA
# Type: cell-based, human
# Set-up: RFU PODN (11730768_x_at) / Fold change /veh PODN (11730768_x_at) / RFU LINC00158 (11744669_a_at) / Fold change /veh LINC00158 (11744669_a_at) / RFU DUSP10 (11751237_a_at) / Fold change /veh DUSP10 (11751237_a_at) / RFU ID3 (11757404_x_at) / Fold change /veh ID3 (11757404_x_at) / RFU PLEKHG5 (11737974_s_at) / Fold change /veh PLEKHG5 (11737974_s_at) / RFU LRRC4B (11730491_at) / Fold change /veh LRRC4B (11730491_at) / RFU GIMAP4 (11747438_a_at) / Fold change /veh GIMAP4 (11747438_a_at) / RFU KRT8 (11758183_x_at) / Fold change /veh KRT8 (11758183_x_at) / RFU CNN1 (11734310_a_at) / Fold change /veh CNN1 (11734310_a_at) / RFU VPS37D (11726825_at) / Fold change /veh VPS37D (11726825_at) / RFU C10orf10 (11716522_x_at) / Fold change /veh C10orf10 (11716522_x_at) / RFU KIR2DL2 /// KIR2DL4 /// KIR2DL5A /// KIR2DL5B /// KIR2DS1 /// KIR2DS2 /// KIR2DS3 /// KIR2DS4 /// KIR3DL3 /// KIR3DL3 /// KIR3DS1 (11738374_at) / Fold change /veh KIR2DL2 /// KIR2DL4 /// KIR2DL5A /// KIR2DL5B /// KIR2DS1 /// KIR2DS2 /// KIR2DS3 /// KIR2DS4 /// KIR3DL3 /// KIR3DL3 /// KIR3DS1 (11738374_at) / RFU C1QL1 (11718748_at) / Fold change /veh C1QL1 (11718748_at) / RFU TMPRSS4 (11747572_a_at) / Fold change /veh TMPRSS4 (11747572_a_at) / RFU HAMP (11756126_x_at) / Fold change /veh HAMP (11756126_x_at) / RFU RNFT2 (11725882_a_at) / Fold change /veh RNFT2 (11725882_a_at) / RFU NR4A2 (11747474_a_at) / Fold change /veh NR4A2 (11747474_a_at) / RFU ABCC12 (11746883_a_at) / Fold change /veh ABCC12 (11746883_a_at) / RFU TMEM136 (11760407_x_at) / Fold change /veh TMEM136 (11760407_x_at) / RFU CLDN22 /// WWC2 (11732394_at) / Fold change /veh CLDN22 /// WWC2 (11732394_at) / RFU HLA-DPB1 (11760878_x_at) / Fold change /veh HLA-DPB1 (11760878_x_at) / RFU SPINT1 (11716480_a_at) / Fold change /veh SPINT1 (11716480_a_at) / RFU GAP43 (11754022_s_at) / Fold change /veh GAP43 (11754022_s_at) / RFU A4GNT (11735810_at) / Fold change /veh A4GNT (11735810_at) / RFU PRB3 (11715151_x_at) / Fold change /veh PRB3 (11715151_x_at) / RFU TUBB4B (11761932_at) / Fold change /veh TUBB4B (11761932_at) / RFU CAPN14 (11732068_a_at) / Fold change /veh CAPN14 (11732068_a_at) / RFU TMCC2 (11721928_a_at) / Fold change /veh TMCC2 (11721928_a_at) / RFU IRGQ (11745062_a_at) / Fold change /veh IRGQ (11745062_a_at) / RFU FAM174B (11720279_a_at) / Fold change /veh FAM174B (11720279_a_at) / RFU TMPRSS4 (11748680_a_at) / Fold change /veh TMPRSS4 (11748680_a_at) / RFU FAM212B (11763350_a_at) / Fold change /veh FAM212B (11763350_a_at) / RFU PLEKHG5 (11743358_a_at) / Fold change /veh PLEKHG5 (11743358_a_at) / RFU ZSCAN30 (11745921_a_at) / Fold change /veh ZSCAN30 (11745921_a_at) / RFU CMKLR1 (11741424_a_at) / Fold change /veh CMKLR1 (11741424_a_at) / RFU LOC101060620 /// MAPK8IP1 (11723275_at) / Fold change /veh LOC101060620 /// MAPK8IP1 (11723275_at) / RFU SPTSSB (11747773_x_at) / Fold change /veh SPTSSB (11747773_x_at) / RFU PRSS12 (11739890_at) / Fold change /veh PRSS12 (11739890_at) / RFU BIN1 (11741810_x_at) / Fold change /veh BIN1 (11741810_x_at) / RFU WNT11 (11732464_a_at) / Fold change /veh WNT11 (11732464_a_at) / RFU C10orf10 (11716521_a_at) / Fold change /veh C10orf10 (11716521_a_at) / RFU C5orf56 (11738089_at) / Fold change /veh C5orf56 (11738089_at) / RFU CYB561 (11721691_x_at) / Fold change /veh CYB561 (11721691_x_at) / RFU ANKRD19P (11752326_a_at) / Fold change /veh ANKRD19P (11752326_a_at) / RFU OR2T12 /// OR2T33 /// OR2T8 (11738714_s_at) / Fold change /veh OR2T12 /// OR2T33 /// OR2T8 (11738714_s_at) / RFU VCAN (11748164_a_at) / Fold change /veh VCAN (11748164_a_at) / RFU JSRP1 (11732532_at) / Fold change /veh JSRP1 (11732532_at) / RFU KRTAP10-11 (11738290_x_at) / Fold change /veh KRTAP10-11 (11738290_x_at) / RFU MYO3A (11730013_a_at) / Fold change /veh MYO3A (11730013_a_at) / RFU EBF3 (11725865_a_at) / Fold change /veh EBF3 (11725865_a_at) / RFU CAMK2N1 (11719241_x_at) / Fold change /veh CAMK2N1 (11719241_x_at) / RFU C5orf56 (11738088_a_at) / Fold change /veh C5orf56 (11738088_a_at) / RFU OLFML3 (11715873_a_at) / Fold change /veh OLFML3 (11715873_a_at) / RFU LOC100653217 /// NTM (11731650_a_at) / Fold change /veh LOC100653217 /// NTM (11731650_a_at) / RFU MAPK11 (11762145_a_at) / Fold change /veh MAPK11 (11762145_a_at) / RFU FIZ1 (11724087_x_at) / Fold change /veh FIZ1 (11724087_x_at) / RFU OASL (11726364_x_at) / Fold change /veh OASL (11726364_x_at) / RFU SOX15 (11748057_x_at) / Fold change /veh SOX15 (11748057_x_at) / RFU CD79A (11719716_a_at) / Fold change /veh CD79A (11719716_a_at) / RFU HIST1H1D (11736915_at) / Fold change /veh HIST1H1D (11736915_at) / RFU CASKIN2 (11723855_a_at) / Fold change /veh CASKIN2 (11723855_a_at) / RFU LOC730098 (11760151_x_at) / Fold change /veh LOC730098 (11760151_x_at) / RFU OR4N2 (11742367_at) / Fold change /veh OR4N2 (11742367_at) / RFU PRRT2 (11749266_a_at) / Fold change /veh PRRT2 (11749266_a_at) / RFU SNX32 (11753110_a_at) / Fold change /veh SNX32 (11753110_a_at) / RFU CDHR5 (11726645_a_at) / Fold change /veh CDHR5 (11726645_a_at) / RFU RCAN1 (11760418_a_at) / Fold change /veh RCAN1 (11760418_a_at) / RFU FAM167A (11723789_a_at) / Fold change /veh FAM167A (11723789_a_at) / RFU FAM26E (11764081_at) / Fold change /veh FAM26E (11764081_at) / RFU ISYNA1 (11749810_s_at) / Fold change /veh ISYNA1 (11749810_s_at) / RFU ACY1 (11761880_at) / Fold change /veh ACY1 (11761880_at) / RFU 11764098_at / Fold change /veh 11764098_at / RFU SAMD14 (11745864_x_at) / Fold change /veh SAMD14 (11745864_x_at) / RFU NPB (11741838_a_at) / Fold change /veh NPB (11741838_a_at) / RFU TMPRSS6 (11731388_a_at) / Fold change /veh TMPRSS6 (11731388_a_at) / RFU KRTAP10-2 (11738614_at) / Fold change /veh KRTAP10-2 (11738614_at) / RFU ARHGAP8 /// PRR5-ARHGAP8 (11727945_x_at) / Fold change /veh ARHGAP8 /// PRR5-ARHGAP8 (11727945_x_at) / RFU KRTAP5-7 /// NADSYN1 (11734609_at) / Fold change /veh KRTAP5-7 /// NADSYN1 (11734609_at) / RFU RASL12 (11751679_a_at) / Fold change /veh RASL12 (11751679_a_at) / RFU CDKN2B (11736163_a_at) / Fold change /veh CDKN2B (11736163_a_at) / RFU PRF1 (11729649_at) / Fold change /veh PRF1 (11729649_at) / RFU, ZNF638 /// ZNF638-IT1 / Fold change vs veh, ZNF638 /// ZNF638-IT1 / RFU, PANK3 / Fold change vs veh, PANK3 / RFU, SH3YL1 / Fold change vs veh, SH3YL1 / RFU, ZEB2 / Fold change vs veh, ZEB2 / RFU, NRIP1 / Fold change vs veh, NRIP1 / RFU, PTTG1IP / Fold change vs veh, PTTG1IP / RFU, CAPN2 / Fold change vs veh, CAPN2 / RFU, MED14 / Fold change vs veh, MED14 / RFU, SNORA58 / Fold change vs veh, SNORA58 / RFU, C1orf63 / Fold change vs veh, C1orf63 / RFU, LRRFIP1 / Fold change vs veh, LRRFIP1 / RFU, NDUFAF7 / Fold change vs veh, NDUFAF7 / RFU, SLC12A2 / Fold change vs veh, SLC12A2 / RFU, IBTK / Fold change vs veh, IBTK / RFU, ESF1 / Fold change vs veh, ESF1 / Fold change vs veh, TMEM50B / RFU, TAOK1 / Fold change vs veh, TAOK1 / RFU, ACBD3 / Fold change vs veh, ACBD3 / RFU, TMA16 / Fold change vs veh, TMA16 / RFU, RWDD3 / Fold change vs veh, RWDD3 / RFU, BCAT1 / Fold change vs veh, BCAT1 / RFU, EDEM3 / Fold change vs veh, EDEM3 / RFU, TMEM33 / Fold change vs veh, TMEM33 / RFU, WDR75 / Fold change vs veh, WDR75 / RFU, AHCTF1 / Fold change vs veh, AHCTF1 / RFU, TFRC / Fold change vs veh, TFRC / RFU, ZDHHC17 / Fold change vs veh, ZDHHC17 / RFU, NOM1 / Fold change vs veh, NOM1 / RFU, ARL8B / Fold change vs veh, ARL8B / RFU, ZBTB11 / Fold change vs veh, ZBTB11 / RFU, TAMM41 / Fold change vs veh, TAMM41 / RFU, KIAA1704 /// LOC100996395 / Fold change vs veh, KIAA1704 /// LOC100996395 / RFU, ING1 / Fold change vs veh, ING1 / RFU, TRMT61B / Fold change vs veh, TRMT61B / RFU, FUBP3 / Fold change vs veh, FUBP3 / RFU, TP53 / Fold change vs veh, TP53 / RFU, TNKS2 / Fold change vs veh, TNKS2 / RFU, ZFP14 / Fold change vs veh, ZFP14 / RFU, ACTR2 / Fold change vs veh, ACTR2 / RFU, PPP3R1 / Fold change vs veh, PPP3R1 / RFU, PIK3R1 / Fold change vs veh, PIK3R1 / RFU, HNRNPA1 / Fold change vs veh, HNRNPA1 / RFU, RNF170 / Fold change vs veh, RNF170 / RFU, ZNF28 / Fold change vs veh, ZNF28 / RFU, RNGTT / Fold change vs veh, RNGTT / RFU, OGT / Fold change vs veh, OGT / RFU, BRD1 / Fold change vs veh, BRD1 / RFU, MARS / Fold change vs veh, MARS / RFU, ZNF655 / Fold change vs veh, ZNF655 / RFU, FAHD1 / Fold change vs veh, FAHD1 / RFU, BDP1 / Fold change vs veh, BDP1 / RFU, LRRCC1 / Fold change vs veh, LRRCC1 / RFU, ARID1A / Fold change vs veh, ARID1A / RFU, ZNF146 / Fold change vs veh, ZNF146 / RFU, ZNF330 / Fold change vs veh, ZNF330 / RFU, GPN3 / Fold change vs veh, GPN3 / RFU, C9orf123 / Fold change vs veh, C9orf123 / RFU, N4BP2L2 / Fold change vs veh, N4BP2L2 / RFU, ARFIP1 / Fold change vs veh, ARFIP1 / RFU, FAM179B / Fold change vs veh, FAM179B / RFU, BCL10 / Fold change vs veh, BCL10 / RFU, UHRF1BP1L / Fold change vs veh, UHRF1BP1L / RFU, BET1 / Fold change vs veh, BET1 / RFU, CNOT2 / Fold change vs veh, CNOT2 / RFU, ZNF268 / Fold change vs veh, ZNF268 / Fold change vs veh, ZNF507 / RFU, DGCR2 / Fold change vs veh, DGCR2 / RFU, WDSUB1 / Fold change vs veh, WDSUB1 / Fold change vs veh, HSP90B1 /// MIR3652 / RFU, ADSS / Fold change vs veh, ADSS / RFU, GK / Fold change vs veh, GK / RFU, ZNF148 / Fold change vs veh, ZNF148 / RFU, TAF9 / Fold change vs veh, TAF9 / RFU, SLC1A5 / Fold change vs veh, SLC1A5 / RFU, SLMO2 / Fold change vs veh, SLMO2 / RFU, ABCC4 / Fold change vs veh, ABCC4 / RFU, LOC101060439 /// RAP1B / Fold change vs veh, LOC101060439 /// RAP1B / RFU, RFX7 / Fold change vs veh, RFX7 / RFU, GTPBP10 / Fold change vs veh, GTPBP10 / RFU, CNEP1R1 / Fold change vs veh, CNEP1R1 / RFU, BIVM-ERCC5 /// ERCC5 / Fold change vs veh, BIVM-ERCC5 /// ERCC5 / RFU, ILF3 / Fold change vs veh, ILF3 / RFU 11762660_at / Fold change /veh 11762660_at / RFU VCAN (11757783_s_at) / Fold change /veh VCAN (11757783_s_at) / RFU DDX43 (11728927_at) / Fold change /veh DDX43 (11728927_at) / RFU KRT8 (11758188_x_at) / Fold change /veh KRT8 (11758188_x_at) / RFU NKD1 (11759106_at) / Fold change /veh NKD1 (11759106_at) / RFU SRD5A1 (11742802_a_at) / Fold change /veh SRD5A1 (11742802_a_at) / RFU TPSAB1 /// TPSB2 (11721975_s_at) / Fold change /veh TPSAB1 /// TPSB2 (11721975_s_at) / RFU GSTM3 (11746129_a_at) / Fold change /veh GSTM3 (11746129_a_at) / RFU IL23R (11737362_x_at) / Fold change /veh IL23R (11737362_x_at) / RFU TMEM51 (11727254_a_at) / Fold change /veh TMEM51 (11727254_a_at) / RFU PIWIL2 (11732686_x_at) / Fold change /veh PIWIL2 (11732686_x_at) / RFU ORM1 (11744905_x_at) / Fold change /veh ORM1 (11744905_x_at) / RFU CCDC152 (11743942_at) / Fold change /veh CCDC152 (11743942_at) / RFU ECM1 (11717891_a_at) / Fold change /veh ECM1 (11717891_a_at) / RFU IL23R (11748794_a_at) / Fold change /veh IL23R (11748794_a_at) / RFU TNFAIP8L3 (11732012_x_at) / Fold change /veh TNFAIP8L3 (11732012_x_at) / RFU MBOAT4 (11741988_at) / Fold change /veh MBOAT4 (11741988_at) / RFU 11764193_at / Fold change /veh 11764193_at / RFU TMEM53 (11763286_at) / Fold change /veh TMEM53 (11763286_at) / RFU MAGEB2 (11727129_at) / Fold change /veh MAGEB2 (11727129_at) / RFU TMEM200A (11744735_a_at) / Fold change /veh TMEM200A (11744735_a_at) / RFU CCDC152 (11751479_a_at) / Fold change /veh CCDC152 (11751479_a_at) / RFU FAM211A (11726209_a_at) / Fold change /veh FAM211A (11726209_a_at) / RFU RGS16 (11746705_a_at) / Fold change /veh RGS16 (11746705_a_at) / RFU VCAN (11755009_s_at) / Fold change /veh VCAN (11755009_s_at) / RFU RHOB (11743442_s_at) / Fold change /veh RHOB (11743442_s_at) / RFU RGS16 (11720943_a_at) / Fold change /veh RGS16 (11720943_a_at) / RFU RGS16 (11720944_at) / Fold change /veh RGS16 (11720944_at) / RFU, VPS4B / Fold change vs veh, VPS4B / RFU, CREB1 / Fold change vs veh, CREB1 / RFU, DNAJC13 / Fold change vs veh, DNAJC13 / RFU, GNAQ / Fold change vs veh, GNAQ / RFU, CDK5R1 / Fold change vs veh, CDK5R1 / RFU, ZRANB3 / Fold change vs veh, ZRANB3 / RFU, CUL4A / Fold change vs veh, CUL4A / RFU, CCNY / Fold change vs veh, CCNY / RFU, UFL1 / Fold change vs veh, UFL1 / RFU, COG3 / Fold change vs veh, COG3 / RFU, DIAPH2 / Fold change vs veh, DIAPH2 / RFU, SKA2 / Fold change vs veh, SKA2 / RFU, AFF3 / Fold change vs veh, AFF3 / RFU, LMF1 / Fold change vs veh, LMF1 / RFU, IPO11 / Fold change vs veh, IPO11 / RFU, DFFB / Fold change vs veh, DFFB / RFU, FOXP1 / Fold change vs veh, FOXP1 / RFU, CARD8 / Fold change vs veh, CARD8 / RFU, STRN3 / Fold change vs veh, STRN3 / RFU, ADK / Fold change vs veh, ADK / RFU, RASSF2 / Fold change vs veh, RASSF2 / RFU, WIPF1 / Fold change vs veh, WIPF1 / RFU, LARP1B / Fold change vs veh, LARP1B / RFU, RASA1 / Fold change vs veh, RASA1 / RFU, RB1 / Fold change vs veh, RB1 / RFU, PPFIA1 / Fold change vs veh, PPFIA1 / RFU, MAT2A / Fold change vs veh, MAT2A / RFU, CCT5 / Fold change vs veh, CCT5 / RFU, WDR92 / Fold change vs veh, WDR92 / RFU, CUX1 / Fold change vs veh, CUX1 / RFU, TTC7A / Fold change vs veh, TTC7A / RFU, TMEM135 / Fold change vs veh, TMEM135 / RFU, DEPTOR / Fold change vs veh, DEPTOR / RFU, CPM / Fold change vs veh, CPM / RFU, DNAJB6 / Fold change vs veh, DNAJB6 / RFU, CACNA2D3 / Fold change vs veh, CACNA2D3 / RFU, DTX4 / Fold change vs veh, DTX4 / RFU, TFCP2 / Fold change vs veh, TFCP2 / RFU, GMCL1 /// GMCL1P1 / Fold change vs veh, GMCL1 /// GMCL1P1 / RFU, AEBP2 / Fold change vs veh, AEBP2 / RFU, SNHG1 /// SNORD22 /// SNORD25 /// SNORD26 /// SNORD27 /// SNORD28 /// SNORD29 /// SNORD31 / Fold change vs veh, SNHG1 /// SNORD22 /// SNORD25 /// SNORD26 /// SNORD27 /// SNORD28 /// SNORD29 /// SNORD31 / Fold change (Aza/veh), C12orf56 (ProbeSet 11735607_a_at) / Fold change (ACY-1035/veh), C12orf56 (ProbeSet 11735607_a_at) / Fold change (Aza/veh), FGFR1OP (ProbeSet 11751329_s_at) / Fold change (ACY-1035/veh), FGFR1OP (ProbeSet 11751329_s_at) / Fold change (Aza/veh), VPS36 (ProbeSet 11739960_a_at) / Fold change (ACY-1035/veh), VPS36 (ProbeSet 11739960_a_at) / RFU SYPL1 (11715823_x_at) / Fold change /veh SYPL1 (11715823_x_at) / RFU IGFBP7 (11715501_s_at) / Fold change /veh IGFBP7 (11715501_s_at) / RFU REEP3 (11722064_at) / Fold change /veh REEP3 (11722064_at) / RFU IGLL1 (11728026_x_at) / Fold change /veh IGLL1 (11728026_x_at): dose or concentration left out as unconfirmed
# Conditions: ProbeSet 11760938_a_at; LIST D
compound,measurement,value
Nc1ccc(-c2cccs2)cc1NC(=O)c1ccc2c(c1)cc(C1CC1)n2CCN1CCOCC1 [ACY-1035],"Fold change vs veh, MAT2A",0.84

# From PMC5218480 (PLoS ONE, 2017)
